In ChEMBL document CHEMBL1759909, “Discovery of 3-aryl-5-acylpiperazinyl-pyrazoles as antagonists to the NK3 receptor” (Bioorg Med Chem Lett, 2011):

Key:
[1] = in vitro; conditions: rat, liver microsomes
[2] = in vitro; conditions: rat, plasma
[3] = in vivo; conditions: Sprague-Dawley, rat
[4] = species on record: Rattus norvegicus; conditions: in vivo, po, 3 mg/kg
[5] = in vivo; conditions: CD1, mouse, brain, ip, 5 mg/kg
[6] = species on record: Rattus norvegicus; conditions: in vivo, po, 3 mg/kg; remark: listed apart in the source
[7] = in vivo; conditions: Sprague-Dawley, rat, iv, 1 mg/kg
[8] = in vivo; conditions: CD1, mouse, brain/plasma, ip, 5 mg/kg
[9] = in vivo; conditions: Sprague-Dawley, rat, po, 3 mg/kg
[10] = in vivo; conditions: Sprague-Dawley, rat, iv, 1 mg/kg; remark: listed apart in the source
[11] = in vivo; conditions: Sprague-Dawley, rat, plasma, po, 3 mg/kg

Compound	half-life [1] [min]	remaining at 1 h [2] [%]	half-life [3] [min]	F [4] [%]	concentration at 10 min [5] [ng/g]	AUC [6] [ng·min/mL]	Vd [7] [L/kg]	Kp at 10 min [8]	bioavailability [9] [%]	clearance [10] [mL/min/kg]	AUC [11] [ng·h/mL]
COc1ccccc1N1CCN(C(=O)c2cc(-c3ccc(Cl)cc3)n[nH]2)[C@@H](C)C1	2	100									
COc1ccccc1N1CCN(C(=O)c2cc(-c3ccc(Cl)cc3)n(C)n2)CC1	40	100	310	53	1700	90501	3.3	0.64			
COc1ccccc1N1CCN(C(=O)c2cc(-c3ccc(Cl)cc3Cl)n[nH]2)CC1	45	5									
CC(=O)N(C)C1(c2ccccc2)CCN(CCC[C@]2(c3ccc(Cl)c(Cl)c3)CCCN(C(=O)c3ccccc3)C2)CC1 [OSANETANT]	23		110		30		8.7	0.03	17	57	114
CC[C@H](NC(=O)c1c(O)c(-c2ccccc2)nc2ccccc12)c1ccccc1 [TALNETANT]	60	100	450		340		1.4	0.07	53	1.9	15600
